Results as given in US12453709B2, “Compositions and methods for treating autism” (priority 2013, dated 2025).
Marks after values point to notes of the source that are not given here.

System: male patients diagnosed with autism
Assay: Study HT 02-121: adverse events
Assay type: in vivo, human
Description: The purpose of this clinical study (referred to herein as “Study HT 02-121”; i.e., Example 6) was to determine whether L1-79 was a well-tolerated and clinically useful agent for the treatment of ASD, and to assess the PK and pharmacodynamics (PD) of four weeks of TID dosing with L1-79. […] The first cohort of 20 patients was comprised of three groups of patients: The first group of five patients received open-label L1-79 100 mg TID and underwent PK and EKG assessments. […] The PK and safety data from the open-label L1-79 100 mg TID group was submitted to FDA for review and acceptance before the second cohort was enrolled. The second cohort was procedurally identical to the first. The second cohort of 20 patients was comprised of the same three groups of patients but a dose of 200 mg TID was used instead of 100 mg TID. The key inclusion criteria were as follows: […] Safety was the primary endpoint of the study. The following safety endpoints were assessed: ECGs, physical exams, laboratory evaluations (hematology, chemistry and urinalysis), vital signs, including orthostatic blood pressure, adverse events (AEs) and concomitant medications. The incidence of AEs by primary system organ class and preferred term is presented in Table 7, and a listing of the AEs reported during the study is presented in Table 8. All AEs were mild to moderate in intensity and self-limited.

[1] = patient 01-011, OL 200 mg TID, treatment emergent Y, resolved
[2] = patient 02-001, OL 100 mg TID, treatment emergent Y, resolved
[3] = patient 02-018, DB 200 mg TID, treatment emergent Y, resolved

## CC(N)(Cc1ccc(O)cc1)C(=O)O (racemic) [L1-79, α-methyl-DL-tyrosine]
28-day treatment period
  safety and tolerability: safe and well tolerated
DB 100 mg TID, N = 10
  Incidence of AEs: Agitation: 0[0] n(%)
  Incidence of AEs: All primary SOC: 1(10.0) n(%)
  Incidence of AEs: Amylase †: 0[0] n(%)
  Incidence of AEs: Anxiety: 0[0] n(%)
  Incidence of AEs: Blood TSH †: 0[0] n(%)
  Incidence of AEs: Confusional state: 0[0] n(%)
  Incidence of AEs: Cough: 0[0] n(%)
  Incidence of AEs: Crystal urine present: 0[0] n(%)
  Incidence of AEs: Diarrhoea: 0[0] n(%)
  Incidence of AEs: Ear infection: 0[0] n(%)
  Incidence of AEs: Fatigue: 0[0] n(%)
  Incidence of AEs: GI disorders: 0[0] n(%)
  Incidence of AEs: General disorders & administration site conditions: 0[0] n(%)
  Incidence of AEs: Generalized tonic-clonic seizure: 0[0] n(%)
  Incidence of AEs: Immune system disorders: 0[0] n(%)
  Incidence of AEs: Infections and infestations: 0[0] n(%)
  Incidence of AEs: International self-injury: 0[0] n(%)
  Incidence of AEs: Investigations: 0[0] n(%)
  Incidence of AEs: Irritability: 0[0] n(%)
  Incidence of AEs: Nasopharyngitis: 0[0] n(%)
  Incidence of AEs: Nervous system disorders: 1(10.0) n(%)
  Incidence of AEs: Otitis externa: 0[0] n(%)
  Incidence of AEs: Psychiatric disorders: 0[0] n(%)
  Incidence of AEs: Pyrexia: 0[0] n(%)
  Incidence of AEs: Renal and urinary disorders: 0[0] n(%)
  Incidence of AEs: Respiratory, thoracic & mediastinal disorders: 0[0] n(%)
  Incidence of AEs: Seasonal allergy: 0[0] n(%)
  Incidence of AEs: Syncope: 1(10.0) n(%)
  Incidence of AEs: Urinary incontinence: 0[0] n(%)
  Number of AE events: All primary SOC: 1 [e]
  Number of AE events: Nervous system disorders: 1 [e]
  Number of AE events: Syncope: 1 [e]
DB 200 mg TID, N = 11
  Incidence of AEs: Agitation: 0[0] n(%)
  Incidence of AEs: All primary SOC: 6(54.5) n(%)
  Incidence of AEs: Amylase †: 0[0] n(%)
  Incidence of AEs: Anxiety: 1(9.1) n(%)
  Incidence of AEs: Blood TSH †: 1(9.1) n(%)
  Incidence of AEs: Confusional state: 0[0] n(%)
  Incidence of AEs: Cough: 0[0] n(%)
  Incidence of AEs: Crystal urine present: 2(18.2) n(%)
  Incidence of AEs: Diarrhoea: 3(27.3) n(%)
  Incidence of AEs: Ear infection: 1(9.1) n(%)
  Incidence of AEs: Fatigue: 0[0] n(%)
  Incidence of AEs: GI disorders: 3(27.3) n(%)
  Incidence of AEs: General disorders & administration site conditions: 0[0] n(%)
  Incidence of AEs: Generalized tonic-clonic seizure: 1(9.1) n(%)
  Incidence of AEs: Immune system disorders: 0[0] n(%)
  Incidence of AEs: Infections and infestations: 2(18.2) n(%)
  Incidence of AEs: International self-injury: 0[0] n(%)
  Incidence of AEs: Investigations: 3(27.3) n(%)
  Incidence of AEs: Irritability: 0[0] n(%)
  Incidence of AEs: Nasopharyngitis: 0[0] n(%)
  Incidence of AEs: Nervous system disorders: 1(9.1) n(%)
  Incidence of AEs: Otitis externa: 1(9.1) n(%)
  Incidence of AEs: Psychiatric disorders: 1(9.1) n(%)
  Incidence of AEs: Pyrexia: 0[0] n(%)
  Incidence of AEs: Renal and urinary disorders: 0[0] n(%)
  Incidence of AEs: Respiratory, thoracic & mediastinal disorders: 0[0] n(%)
  Incidence of AEs: Seasonal allergy: 0[0] n(%)
  Incidence of AEs: Syncope: 0[0] n(%)
  Incidence of AEs: Urinary incontinence: 0[0] n(%)
  Number of AE events: All primary SOC: 10 [e]
  Number of AE events: Anxiety: 1 [e]
  Number of AE events: Blood TSH †: 1 [e]
  Number of AE events: Crystal urine present: 2 [e]
  Number of AE events: Diarrhoea: 3 [e]
  Number of AE events: Ear infection: 1 [e]
  Number of AE events: GI disorders: 3 [e]
  Number of AE events: Generalized tonic-clonic seizure: 1 [e]
  Number of AE events: Infections and infestations: 2 [e]
  Number of AE events: Investigations: 3 [e]
  Number of AE events: Nervous system disorders: 1 [e]
  Number of AE events: Otitis externa: 1 [e]
  Number of AE events: Psychiatric disorders: 1 [e]
OL 100 mg TID, N = 5
  Incidence of AEs: Agitation: 0[0] n(%)
  Incidence of AEs: All primary SOC: 2(40.0) n(%)
  Incidence of AEs: Amylase †: 0[0] n(%)
  Incidence of AEs: Anxiety: 1(20.0) n(%)
  Incidence of AEs: Blood TSH †: 0[0] n(%)
  Incidence of AEs: Confusional state: 1(20.0) n(%)
  Incidence of AEs: Cough: 0[0] n(%)
  Incidence of AEs: Crystal urine present: 0[0] n(%)
  Incidence of AEs: Diarrhoea: 0[0] n(%)
  Incidence of AEs: Ear infection: 0[0] n(%)
  Incidence of AEs: Fatigue: 0[0] n(%)
  Incidence of AEs: GI disorders: 0[0] n(%)
  Incidence of AEs: General disorders & administration site conditions: 0[0] n(%)
  Incidence of AEs: Generalized tonic-clonic seizure: 0[0] n(%)
  Incidence of AEs: Immune system disorders: 0[0] n(%)
  Incidence of AEs: Infections and infestations: 0[0] n(%)
  Incidence of AEs: International self-injury: 2(40.0) n(%)
  Incidence of AEs: Investigations: 0[0] n(%)
  Incidence of AEs: Irritability: 2(40.0) n(%)
  Incidence of AEs: Nasopharyngitis: 0[0] n(%)
  Incidence of AEs: Nervous system disorders: 0[0] n(%)
  Incidence of AEs: Otitis externa: 0[0] n(%)
  Incidence of AEs: Psychiatric disorders: 2(40.0) n(%)
  Incidence of AEs: Pyrexia: 0[0] n(%)
  Incidence of AEs: Renal and urinary disorders: 0[0] n(%)
  Incidence of AEs: Respiratory, thoracic & mediastinal disorders: 0[0] n(%)
  Incidence of AEs: Seasonal allergy: 0[0] n(%)
  Incidence of AEs: Syncope: 0[0] n(%)
  Incidence of AEs: Urinary incontinence: 0[0] n(%)
  Number of AE events: All primary SOC: 6 [e]
  Number of AE events: Anxiety: 1 [e]
  Number of AE events: Confusional state: 1 [e]
  Number of AE events: International self-injury: 2 [e]
  Number of AE events: Irritability: 2 [e]
  Number of AE events: Psychiatric disorders: 6 [e]
OL 200 mg TID, N = 6
  Incidence of AEs: Agitation: 0[0] n(%)
  Incidence of AEs: All primary SOC: 2(40.0) n(%)
  Incidence of AEs: Amylase †: 0[0] n(%)
  Incidence of AEs: Anxiety: 0[0] n(%)
  Incidence of AEs: Blood TSH †: 0[0] n(%)
  Incidence of AEs: Confusional state: 0[0] n(%)
  Incidence of AEs: Cough: 1(20.0) n(%)
  Incidence of AEs: Crystal urine present: 0[0] n(%)
  Incidence of AEs: Diarrhoea: 0[0] n(%)
  Incidence of AEs: Ear infection: 0[0] n(%)
  Incidence of AEs: Fatigue: 1(20.0) n(%)
  Incidence of AEs: GI disorders: 0[0] n(%)
  Incidence of AEs: General disorders & administration site conditions: 2(40.0) n(%)
  Incidence of AEs: Generalized tonic-clonic seizure: 0[0] n(%)
  Incidence of AEs: Immune system disorders: 1(20.0) n(%)
  Incidence of AEs: Infections and infestations: 0[0] n(%)
  Incidence of AEs: International self-injury: 0[0] n(%)
  Incidence of AEs: Investigations: 0[0] n(%)
  Incidence of AEs: Irritability: 0[0] n(%)
  Incidence of AEs: Nasopharyngitis: 0[0] n(%)
  Incidence of AEs: Nervous system disorders: 0[0] n(%)
  Incidence of AEs: Otitis externa: 0[0] n(%)
  Incidence of AEs: Psychiatric disorders: 0[0] n(%)
  Incidence of AEs: Pyrexia: 1(20.0) n(%)
  Incidence of AEs: Renal and urinary disorders: 0[0] n(%)
  Incidence of AEs: Respiratory, thoracic & mediastinal disorders: 1(20.0) n(%)
  Incidence of AEs: Seasonal allergy: 1(20.0) n(%)
  Incidence of AEs: Syncope: 0[0] n(%)
  Incidence of AEs: Urinary incontinence: 0[0] n(%)
  Number of AE events: All primary SOC: 4 [e]
  Number of AE events: Cough: 1 [e]
  Number of AE events: Fatigue: 1 [e]
  Number of AE events: General disorders & administration site conditions: 2 [e]
  Number of AE events: Immune system disorders: 1 [e]
  Number of AE events: Pyrexia: 1 [e]
  Number of AE events: Respiratory, thoracic & mediastinal disorders: 1 [e]
  Number of AE events: Seasonal allergy: 1 [e]
Patient 01-011, OL 200 mg TID
  AE Relationship: cough: not related
  AE Relationship: pyrexia (fever): not related
[1]
  AE Severity: cough: moderate
  AE Severity: pyrexia (fever): moderate
Patient 01-014, DB 200 mg TID
  AE Relationship: crystal urine present (urine cystine crystal present): not related
Patient 01-014, DB 200 mg TID, reported at 4-week follow-up visit, resolved
  AE Severity: crystal urine present (urine cystine crystal present): mild
Patient 01-016, DB 200 mg TID
  AE Relationship: diarrhoea (diarrhea): not related
Patient 01-016, DB 200 mg TID, treatment emergent Y, resolved
  AE Severity: diarrhoea (diarrhea): moderate
Patient 01-016, OL 200 mg TID
  AE Relationship: fatigue (tiredness): possibly related
  AE Relationship: seasonal allergy: not related
Patient 01-016, OL 200 mg TID, treatment emergent Y, not resolved
  AE Severity: seasonal allergy: moderate
Patient 01-016, OL 200 mg TID, treatment emergent Y, resolved
  AE Severity: fatigue (tiredness): mild
Patient 01-018, DB 200 mg TID
  AE Relationship: crystal urine present (urine cystine crystal present): not related
Patient 01-018, DB 200 mg TID, reported at 4-week follow-up visit, resolved
  AE Severity: crystal urine present (urine cystine crystal present): mild
Patient 02-001, OL 100 mg TID
  AE Relationship: anxiety (anxious): possibly related
  AE Relationship: confusional state (mental confusion): possibly related
  AE Relationship: intentional self-injury (self injurious behavior): possibly related
  AE Relationship: irritability: possibly related
[2]
  AE Severity: anxiety (anxious): mild
  AE Severity: confusional state (mental confusion): mild
  AE Severity: intentional self-injury (self injurious behavior): mild
  AE Severity: irritability: mild
Patient 02-002, OL 100 mg TID
  AE Relationship: intentional self-injury (violent episodes of self injurious behavior): probably related
  AE Relationship: irritability: probably related
Patient 02-002, OL 100 mg TID, treatment emergent Y, outcome unknown
  AE Severity: irritability: mild
Patient 02-002, OL 100 mg TID, treatment emergent Y, resolving
  AE Severity: intentional self-injury (violent episodes of self injurious behavior): mild
Patient 02-009, DB 100 mg TID
  AE Relationship: synoope (synoope): not related
Patient 02-009, DB 100 mg TID, treatment emergent Y, resolved
  AE Severity: synoope (synoope): mild
Patient 02-018, DB 200 mg TID
  AE Relationship: anxiety (anxious mood): possibly related
  AE Relationship: blood thyroid stimulating hormone increased (elevated TSH): possibly related
  AE Relationship: diarrhoea (diarrhea): possibly related
  AE Relationship: otitis externa: not related
Patient 02-018, DB 200 mg TID, reported at 4-week follow-up visit, resolved
  AE Severity: blood thyroid stimulating hormone increased (elevated TSH): moderate
[3]
  AE Severity: anxiety (anxious mood): mild
  AE Severity: diarrhoea (diarrhea): moderate
  AE Severity: otitis externa: mild
Patient 02-023, DB 200 mg TID
  AE Relationship: generalized tonic-clonic seizer (grand mal seizure): possibly related
Patient 02-023, DB 200 mg TID, treatment emergent Y, resolved, discontinued Y
  AE Severity: generalized tonic-clonic seizer (grand mal seizure): moderate
Patient 02-024, DB 200 mg TID
  AE Relationship: diarrhoea (diarrhea): not related
Patient 02-024, DB 200 mg TID, AE reported pre-treatment
  AE Relationship: ear infection: not related
Patient 02-024, DB 200 mg TID, AE reported pre-treatment, resolving
  AE Severity: ear infection: mild
Patient 02-024, DB 200 mg TID, treatment emergent Y, resolved
  AE Severity: diarrhoea (diarrhea): mild
